From patent publication US8138191B2, “Inhibitor compounds and cancer treatment methods” (Critical Outcome Technologies Inc., priority 2007, dated 2012)

Assays:
H226 = experiment: Flow cytometric analysis of cell death (Annexin V/PI), H226; assay type: cell-based, human; settings: H226, 15 μM, 48 h
Description: All cell lines were grown and exposed to various concentrations of COTI-2 or vehicle only control and the percentage of dead or dying cells were determined 24 and 48 h post-exposure by Annexin V and propidium iodide.
HL-60 (human promyelocytic leukemia) cells were grown as non-adherent cells in flasks in RPMI 1640 medium supplemented with 10% FBS. H226 (human non-small cell lung cancer) cells were grown in Eagle's MEM supplemented with 10% FBS. Both cell lines were obtained from the American Type Culture Collection (ATCC)(Rockville, Md.) and maintained at 37° C. in a humidified 5% CO2 atmosphere.
Cells were plated in 25-cm^2 flasks and treated with COTI-2 (0-100 μM) added from a stock DMSO/DMEM solution such that DMSO concentrations never exceeded 0.5%. Control cells were treated with stock DMSO/DMEM. […] Resuspended cells (100 μl) were incubated in the dark with 10 μl propidium iodide (PI, 50 ng per ml; Sigma, St. Louis, Mo.) plus Annexin V-FITC (25 ng per ml, green fluorescence; BD Biosciences, Mississauga, Ontario). […] Samples were analyzed for combined Annexin V/PI staining (to assess dead plus apoptotic cells) using a Beckman Coulter EPCS XL-MCL flow cytometer (Beckman Coulter, Hileah, Fla.) and the data were analyzed with CellQuest software.

[1] = test system: total Akt protein in SHP-77 cells; experiment: Total Akt by western blot analysis, SHP-77; assay type: cell-based, human; settings: SHP-77, 250 nM, after 24 hrs
Description: Cell viability was determined at 24, 48, and 96 hrs by the trypan exclusion method. Whole cell lysates were prepared using standard procedures and fifty micrograms of lysate protein was separated on SDS-PAGE gels and analyzed by western blotting.
Cell viability was determined at 24, 48, and 96 h by the trypan exclusion method. Whole cell lysates were prepared using standard procedures and 50 μg of lysate protein was separated on SDS-PAGE gels and analyzed by western blotting.

in vitro = in vitro ADME; settings: mixed breeds, rat
rat plasma = experiment: in vitro; assay type: in vitro ADME; settings: mixed breeds, 10 µM
CYP3A = CYP3A (Homo sapiens, UniProt P08684); experiment: in vitro; settings: both
DMS114 cells = experiment: siRNA target knock-down with COTI-219, cell viability by trypan blue, DMS114; assay type: cell-based, human; settings: DMS114, 500 nM, 48 h
Description: In brief, cells DMS114 and SHP77 cells were transfected with gene specific siRNA in the presence or absence of COTI-219 and cell viability determined after 24 to 48 h post-incubation using the trypan blue exclusion method.
Cell cultures were maintained under regular tissue culture conditions and passaged 1-2 times a week as recommended by ATCC. With the exception of the siRNA for Bim (Signal Silence Bim siRNA kit #6460 from Cell Signaling), all other siRNA reagents for gene knock-down experiments was obtained from Ambion (Silencer Negative Control #1 siRNA #AM4611, CDK2 Silencer Select #s204, HRAS Silencer Select #s807, Protein kinase C alpha Silencer Validated #301, MAPK3/Erk Silencer Pre-designed #214749, EGFR Silencer Select #s563, and ERBB2 Silencer Select #s611). […] The transfection method required optimization such that a knock-down of the target gene greater than ˜75% was achieved and confirmed by western blot analyses. […] Following an optimal knock-down level at >75%, 2×10^5 cells were incubated with 500 nM COTI-219 and number of viable cells was measured at 48 h.
Cell viability assays were performed 24 to 48 h following incubation with COTI-219 by the trypan blue exclusion method using a Beckman-Coulter Vi-CELL XR 2.03 automated cell counter. Routine laboratory methods were employed for the production of cellular lysates, protein quantitation, SDS-PAGE and western blotting. […]

CYP3A, sequence (P08684 2-503): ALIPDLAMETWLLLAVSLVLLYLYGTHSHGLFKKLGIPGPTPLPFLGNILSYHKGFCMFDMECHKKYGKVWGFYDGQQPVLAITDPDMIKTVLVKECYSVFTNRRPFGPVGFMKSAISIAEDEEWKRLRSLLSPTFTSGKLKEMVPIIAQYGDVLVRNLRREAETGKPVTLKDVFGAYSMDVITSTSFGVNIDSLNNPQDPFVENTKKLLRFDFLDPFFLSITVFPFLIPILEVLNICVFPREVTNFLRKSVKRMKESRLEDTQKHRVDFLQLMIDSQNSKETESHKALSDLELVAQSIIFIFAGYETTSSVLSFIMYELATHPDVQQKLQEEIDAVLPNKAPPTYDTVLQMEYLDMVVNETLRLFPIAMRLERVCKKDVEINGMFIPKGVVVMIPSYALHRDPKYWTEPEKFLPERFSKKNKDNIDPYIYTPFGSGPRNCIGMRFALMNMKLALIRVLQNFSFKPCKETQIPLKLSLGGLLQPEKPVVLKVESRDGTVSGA

Row | Structure (SMILES) | induction of apoptosis and death (H226) | total Akt protein [1] | recovery at 10 µM (in vitro; % Recovery 1st) [%] | recovery at 10 µM (in vitro; % Recovery 2nd) [%] | recovery at 10 µM (in vitro; % Recovery Mean) [%] | recovery at 10 µM (in vitro; percent recovery) [%] | % Protein Bound 1st (rat plasma) [%] | % Protein Bound 2nd (rat plasma) [%] | % Protein Bound Mean (rat plasma) [%] | percent protein bound (rat plasma) [%] | inhibition at 15 min, 10 µM (CYP3A; human liver microsomes, pH 7.4, probe midazolam (10 µM)) [%] | inhibition at 15 min, 10 µM (CYP3A; liver microsomes, pH 7.4, probe midazolam) [%] | target knock-downs suppressing the action of COTI-219 on apoptosis/cell growth (DMS114 cells)
1 | S=C(N/N=C1/CCCc2cccnc21)N1CCN(c2ccccn2)CC1 [COTI-2] | approximately 40% | decreased | 16.4 | 25.1 | 20.7 | < 50 | >99.9 | >99.9 | >99.9 | > 99 | 7 | < 50 | –
2 | CN1CCN(C(=S)NN=C2c3ncccc3-c3cccnc32)CC1 [COTI-219] | – | – | – | – | – | – | – | – | – | – | – | – | only the Ras knock-down was able to suppress the action of COTI-219
